{"source": "paper PMC8619641", "about": "“The Antileukemic Effect of Xestoquinone, A Marine-Derived Polycyclic Quinone-Type Metabolite, Is Mediated through ROS-Induced Inhibition of HSP-90” (Molecules, 2021)", "target": "T1, topo IIα (Topo II) (Homo sapiens, UniProt P11388)", "T1 construct": "gene TOP2A", "T1 sequence (P11388 whole entry)": "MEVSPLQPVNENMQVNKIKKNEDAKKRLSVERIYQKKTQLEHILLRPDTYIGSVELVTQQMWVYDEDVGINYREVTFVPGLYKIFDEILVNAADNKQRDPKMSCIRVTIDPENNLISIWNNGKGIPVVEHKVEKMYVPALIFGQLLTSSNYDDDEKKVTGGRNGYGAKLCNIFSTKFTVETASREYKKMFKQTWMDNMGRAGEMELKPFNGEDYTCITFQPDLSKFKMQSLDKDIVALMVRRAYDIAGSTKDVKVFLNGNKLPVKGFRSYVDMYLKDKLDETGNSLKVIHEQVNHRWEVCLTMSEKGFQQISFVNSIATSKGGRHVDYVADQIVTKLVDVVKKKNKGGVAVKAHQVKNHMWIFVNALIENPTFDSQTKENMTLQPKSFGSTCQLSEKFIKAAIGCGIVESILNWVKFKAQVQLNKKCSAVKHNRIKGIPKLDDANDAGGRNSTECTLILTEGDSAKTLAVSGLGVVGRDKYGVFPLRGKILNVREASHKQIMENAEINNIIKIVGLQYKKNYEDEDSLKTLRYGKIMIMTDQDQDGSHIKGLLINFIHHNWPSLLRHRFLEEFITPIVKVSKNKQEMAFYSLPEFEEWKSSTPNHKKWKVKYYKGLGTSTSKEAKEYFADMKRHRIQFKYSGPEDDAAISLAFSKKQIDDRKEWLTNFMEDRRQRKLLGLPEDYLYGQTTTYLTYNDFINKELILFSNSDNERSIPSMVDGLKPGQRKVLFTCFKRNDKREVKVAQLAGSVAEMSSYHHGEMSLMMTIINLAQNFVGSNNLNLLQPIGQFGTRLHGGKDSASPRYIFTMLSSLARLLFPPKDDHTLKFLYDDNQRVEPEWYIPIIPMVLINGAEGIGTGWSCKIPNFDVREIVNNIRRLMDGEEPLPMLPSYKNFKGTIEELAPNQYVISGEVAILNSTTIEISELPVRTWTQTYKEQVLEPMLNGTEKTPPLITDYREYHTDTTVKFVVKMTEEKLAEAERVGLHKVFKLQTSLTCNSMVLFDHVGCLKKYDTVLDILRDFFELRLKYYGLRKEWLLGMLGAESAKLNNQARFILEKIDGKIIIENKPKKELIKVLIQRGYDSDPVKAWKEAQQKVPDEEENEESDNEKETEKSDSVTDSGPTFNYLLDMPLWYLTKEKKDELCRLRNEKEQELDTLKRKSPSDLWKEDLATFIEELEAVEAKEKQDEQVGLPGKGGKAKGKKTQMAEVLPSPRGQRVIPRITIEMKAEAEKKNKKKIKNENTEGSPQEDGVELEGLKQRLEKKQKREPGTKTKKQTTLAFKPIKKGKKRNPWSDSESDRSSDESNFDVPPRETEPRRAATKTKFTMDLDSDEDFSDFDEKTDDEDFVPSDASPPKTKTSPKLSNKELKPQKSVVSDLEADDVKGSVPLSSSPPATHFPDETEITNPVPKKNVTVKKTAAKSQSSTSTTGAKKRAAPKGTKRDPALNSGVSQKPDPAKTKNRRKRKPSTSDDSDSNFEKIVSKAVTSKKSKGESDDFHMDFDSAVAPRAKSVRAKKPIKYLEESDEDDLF", "assay": "cell-free supercoiled pHOT1 plasmid DNA relaxation assay", "type": "biochemical"}
{"molecule": "C[C@@]12CCCc3coc(c31)C(=O)c1cc3c(cc12)C(=O)C=CC3=O", "note": "[XQ, xestoquinone]", "values": [{"measurement": "IC50", "result": 94, "unit": "nM"}]}
